Test results reported in patent publication US20220370534A1, “EXTERNAL COMPOSITION FOR SKIN HAVING ITCHING RELIEVING EFFECT” (YANGSHENGTANG (ANJI) COSMETICS CO., LTD., priority 2019, published 2022).

System: mast cells
Experiment: Release of interleukin-4 (IL-4) from mast cells stimulated with Compound 48/80
Assay type: cell-based
Details: sample 4 h, then Compound 48/80 20 mg/L 2 h, 8 duplicate wells, model group 67.6 ± 9.9, control group 34.4 ± 7.9
Description: According to the following test method, the effects of the […] samples A-E as prepared above on the release of IL-4 from mast cells were tested.
Experimental principle: The specific antigen is crosslinked with the IgE antibody bound to the cell membrane, resulting in cell activation and rapid secretion of inflammatory mediators related to granulation (histamine, IL-4, IL-13, etc.). […] In this study, Compound 48/80 was used to stimulate mast cells to degranulate and release the inflammatory mediator IL-4 to investigate the protective efficacy of the test samples on the allergic reaction of mast cells.
Experimental materials: Mast cells were provided by the Animal Center of Zhejiang Academy of Medical Sciences. […]
Experimental method: Each of samples was prepared using RPMI1640 medium, and each of samples was provided with 8 duplicate wells. Mast cells were inoculated into a 96-well culture plate at a density of 5×10^6/mL, 90 μL per well, and added with 10 μL/well of a corresponding sample; cultured in a 5% CO2 incubator at 37° C., and taken out after 4 h; in addition to the control group, the other groups were added with a stimulus 48/80 (final concentration 20 mg/L), and continued to incubate in an incubator at 37° C. for 2 h, and then centrifuged at 1500 rpm for 5 mins to get the supernatant, and the content of IL-4 in the supernatant was detected by Elisa (interleukin-4) kit.

Question: With O=C(O)c1cc(=O)c2c(OCC(O)COc3cccc4oc(C(=O)O)cc(=O)c34)cccc2o1 [Positive drug, sodium cromoglycate] as the compound, how does the “Release % (IL-4 release from cell models)” value read?
Answer: The value was 44.2 ± 12.3%.
